The target of one assay is KRas G13D (Homo sapiens, UniProt P01116, G13D). The class given is binding. The following applies: for IC50: TR-FRET displacement, read-out: Binding to KRas (IC50 nM) G13D. Background: Time-resolved FRET reads energy transfer from a long-lived donor to a nearby acceptor.
The target of the next assay is KRas G12D (Homo sapiens, UniProt P01116, G12D). The assay can be described thus: biochemical. Conditions: Binding to KRas (IC50 nM) G12D, TR-FRET displacement, KRas G12D.
Sequence of KRas G12D (P01116 1-169 isoform P01116-2 G12D): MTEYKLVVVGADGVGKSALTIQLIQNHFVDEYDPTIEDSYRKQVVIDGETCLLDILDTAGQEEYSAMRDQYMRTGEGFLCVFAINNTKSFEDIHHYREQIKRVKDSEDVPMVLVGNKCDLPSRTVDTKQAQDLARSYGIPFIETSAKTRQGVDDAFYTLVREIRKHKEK
Another assay addresses KRas WT (Homo sapiens, UniProt P01116). As to the kind of experiment: KRas binding assay (TR-FRET displacement), KRas WT. Conditions: for IC50: TR-FRET displacement.
The target in another assay is KRas G12C (Homo sapiens, UniProt P01116, G12C). It counts as binding. Conditions: for IC50: TR-FRET displacement, read-out: Binding to KRas (IC50 nM) G12C.
Sequence of KRas G12C (P01116 1-169 isoform P01116-2 G12C): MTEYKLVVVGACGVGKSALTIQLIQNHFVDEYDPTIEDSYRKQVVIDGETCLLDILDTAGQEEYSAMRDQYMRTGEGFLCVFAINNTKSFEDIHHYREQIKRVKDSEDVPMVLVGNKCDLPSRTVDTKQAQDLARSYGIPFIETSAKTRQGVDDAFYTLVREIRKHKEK
In a further assay the target is KRas G12A (Homo sapiens, UniProt P01116, G12A). It counts as binding. Conditions: for IC50: TR-FRET displacement, read-out: Binding to KRas (IC50 nM) G12A.
Sequence of KRas G12A (P01116 1-169 isoform P01116-2 G12A): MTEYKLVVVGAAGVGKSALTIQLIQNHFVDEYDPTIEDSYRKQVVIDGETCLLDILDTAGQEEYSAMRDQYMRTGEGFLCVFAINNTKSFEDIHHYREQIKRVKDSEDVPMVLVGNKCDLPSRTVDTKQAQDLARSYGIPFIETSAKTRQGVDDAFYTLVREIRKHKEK
The next assay concerns the target KRas G12R (Homo sapiens, UniProt P01116, G12R). As to the kind of experiment: biochemical. The following applies: Binding to KRas (IC50 nM) G12R, TR-FRET displacement, KRas G12R.
A further assay relates to HCT116 cells. As to the kind of experiment: Inhibition of KRas-mediated phosphorylation of ERK (Cisbio HTRF pERK), HCT116 cells. It counts as cell-based. The following applies: Homo sapiens, HCT-116, single point at 100 nM, 3 hrs compound incubation.
A further assay has as its target KRas Q61H (Homo sapiens, UniProt P01116, Q61H). As to the kind of experiment: KRas binding assay (TR-FRET displacement), KRas Q61H. The following applies: for IC50: TR-FRET displacement.
A further assay deals with A549 cells. As to the kind of experiment: Inhibition of KRas-mediated phosphorylation of ERK (Cisbio HTRF pERK), A549 cells. The class given is cell-based. The following applies: Homo sapiens; for inhibition at 0.1 µM: single point at 100 nM, 3 hrs compound incubation; for IC50: A549, 3 h, 3 hr compound incubation.
The subject of a further assay is H727 cells. As to the kind of experiment: Inhibition of KRas-mediated phosphorylation of ERK (Cisbio HTRF pERK), H727 cells. It counts as cell-based. Conditions: Homo sapiens; for IC50: NCI-H727, 3 h, 3 hr compound incubation; for inhibition at 0.1 µM: NCI-H727, single point at 100 nM, 3 hrs compound incubation.
For a further assay, the target named is KRas G12V (Homo sapiens, UniProt P01116, G12V). As to the kind of experiment: biochemical. Conditions: Binding to KRas (IC50 nM) G12V, TR-FRET displacement, KRas G12V.
Sequence of KRas G12V (P01116 1-169 isoform P01116-2 G12V): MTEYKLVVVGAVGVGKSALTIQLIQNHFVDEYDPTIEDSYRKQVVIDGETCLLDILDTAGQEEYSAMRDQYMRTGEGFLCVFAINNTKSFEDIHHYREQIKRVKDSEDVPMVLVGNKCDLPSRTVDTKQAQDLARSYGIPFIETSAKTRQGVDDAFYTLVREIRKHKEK
The next assay relates to ASPC1 cells. The assay can be described thus: Inhibition of KRas-mediated phosphorylation of ERK (Cisbio HTRF pERK), ASPC1 cells. It counts as cell-based. Conditions: Homo sapiens, AsPC-1 cells; for IC50: ASPC1, 3 h, 3 hr compound incubation; for inhibition at 0.1 µM: ASPC1, single point at 100 nM, 3 hrs compound incubation.
The test system of the next assay is H460 cells. The assay can be described thus: Inhibition of KRas-mediated phosphorylation of ERK (Cisbio HTRF pERK), H460 cells. The class given is cell-based. The following applies: Homo sapiens, NCI-H460, single point at 100 nM, 3 hrs compound incubation.
In another assay the test system is H358 cells. The assay can be described thus: Inhibition of KRas-mediated phosphorylation of ERK (Cisbio HTRF pERK), H358 cells. The class given is cell-based. The following applies: Homo sapiens; for inhibition at 0.1 µM: NCI-H358, single point at 100 nM, 3 hrs compound incubation; for IC50: NCI-H358, 3 h, 3 hr compound incubation.
Another assay addresses KRas G12S (Homo sapiens, UniProt P01116, G12S). The class given is binding. Conditions: for IC50: TR-FRET displacement, read-out: Binding to KRas (IC50 nM) G12S.
For another assay, the system named is PSN1 cells. The assay can be described thus: Inhibition of KRas-mediated phosphorylation of ERK (Cisbio HTRF pERK), PSN1 cells. The class given is cell-based. The following applies: Homo sapiens, PSN1, 3 h, 3 hour compound incubation, Cisbio pERK HTRF. The protocol: (§1) Inhibition of KRas Phosphorylation of ERK (HTRF) by Exemplary Compounds of Formula (I) Cisbio HTRF Advanced pERK Assay Catalog #64AERPEH • Cells: MKN1, PSN1 • Procedure: • Day 1: Seed 6,000 cells/well -25 µl/well in 384-well white solid bottom plate; RPM1_10% FBS.

A further assay relates to MKN1 cells. The assay can be described thus: Inhibition of KRas-mediated phosphorylation of ERK (Cisbio HTRF pERK), MKN1 cells. It counts as cell-based. Conditions: Homo sapiens. How it is done: as §1
Setting [1] is: MKN-1, 3 hour compound incubation, Cisbio pERK HTRF.
[2] abbreviates: MKN-1, 3 hr compound incubation.

This passage reports inhibition and IC50 results from patent US20250368649A1, “TETRAHYDROPYRIDOPYRIMIDINE PAN-KRAS INHIBITORS” (Mirati Therapeutics, Inc., priority 2022, published 2025).

A value given as a limit tells only on which side of the number the result lay.

Sequence of KRas Q61H (P01116 1-169 isoform P01116-2 Q61H): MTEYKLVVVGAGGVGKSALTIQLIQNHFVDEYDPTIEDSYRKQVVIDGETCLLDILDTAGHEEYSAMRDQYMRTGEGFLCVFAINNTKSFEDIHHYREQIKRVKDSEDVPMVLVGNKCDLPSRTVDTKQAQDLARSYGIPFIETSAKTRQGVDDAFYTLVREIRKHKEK
Sequence of KRas WT (P01116 1-169 isoform P01116-2): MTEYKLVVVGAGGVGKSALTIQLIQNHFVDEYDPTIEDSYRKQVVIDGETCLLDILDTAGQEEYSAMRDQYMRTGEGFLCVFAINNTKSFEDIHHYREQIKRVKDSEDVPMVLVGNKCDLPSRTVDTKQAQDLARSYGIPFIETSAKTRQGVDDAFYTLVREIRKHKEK
Sequence of KRas G13D (P01116 1-169 isoform P01116-2 G13D): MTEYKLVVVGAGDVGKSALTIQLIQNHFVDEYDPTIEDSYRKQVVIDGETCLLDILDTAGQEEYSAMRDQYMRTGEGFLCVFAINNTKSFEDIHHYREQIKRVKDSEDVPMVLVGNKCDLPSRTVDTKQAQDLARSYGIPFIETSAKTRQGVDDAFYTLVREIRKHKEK
Sequence of KRas G12R (P01116 1-169 isoform P01116-2 G12R): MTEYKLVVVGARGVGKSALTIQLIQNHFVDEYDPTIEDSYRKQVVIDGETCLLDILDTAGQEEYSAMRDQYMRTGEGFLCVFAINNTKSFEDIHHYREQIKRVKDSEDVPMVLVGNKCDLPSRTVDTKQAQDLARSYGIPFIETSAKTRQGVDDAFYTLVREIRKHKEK
Sequence of KRas G12S (P01116 1-169 isoform P01116-2 G12S): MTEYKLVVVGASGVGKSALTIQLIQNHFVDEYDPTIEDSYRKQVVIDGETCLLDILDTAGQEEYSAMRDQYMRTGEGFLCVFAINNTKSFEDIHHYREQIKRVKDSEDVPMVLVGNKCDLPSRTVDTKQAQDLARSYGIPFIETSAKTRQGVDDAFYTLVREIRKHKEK

What is called inhibition is the relative decrease from the control value, in per cent. A word on the IC50: it is the concentration at which inhibition is half-maximal. `CCc1c(F)ccc2cc(O)cc(N3CCc4c(nc(OC[C@@]56CCCN5C[C@H](F)C6)nc4N4CCCc5nc(C(=O)N(C)C)sc5C4)C3)c12` [Example 304, 5-(7-(8-ethyl-7-fluoro-3-hydroxynaphthalen-1-yl)-2-(((2R,7aS)-2-fluorohexahydro-1H-pyrrolizin-7a-yl)methoxy)-5,6,7,8-tetrahydropyrido[3,4-d]pyrimidin-4-yl)-N,N-dimethyl-5,6,7,8-tetrahydro-4H-thiazolo[5,4-c]azepine-2-carboxamide]: the inhibition at 0.01 µM was found to be 72% at KRas G13D (single point, 10 nM compound, read-out: Binding to KRas (% inhibition at 10 nM) G13D); 70% at KRas WT (single point, 10 nM compound); 83% at KRas G12C (single point, 10 nM compound, read-out: Binding to KRas (% inhibition at 10 nM) G12C); 63% at KRas G12A (single point, 10 nM compound, read-out: Binding to KRas (% inhibition at 10 nM) G12A); 73% at KRas Q61H (single point, 10 nM compound); 77% at KRas G12S (single point, 10 nM compound, read-out: Binding to KRas (% inhibition at 10 nM) G12S). Besides, the IC50 amounted to 3 nM at KRas G12D; 3 nM at KRas G12R; 180 nM in the assay on H727 cells (Cisbio pERK HTRF); 3 nM on KRas G12V; 54 nM in the assay with ASPC1 cells (Cisbio pERK HTRF). Besides, the inhibition at 0.1 µM in the assay on HCT116 cells was -15%; with A549 cells, 33%; with H460 cells, 25%; with H358 cells, 43%.
On to `CCc1c(F)ccc2cc(O)cc(N3CCc4c(nc(OC[C@@]56CCCN5C[C@H](F)C6)nc4NCC4CNS(=O)(=O)N4)C3)c12` (stereo partly drawn) [Example 410, 3-(((7-(8-ethyl-7-fluoro-3-hydroxynaphthalen-1-yl)-2-(((2R,7aS)-2-fluorohexahydro-1H-pyrrolizin-7a-yl)methoxy)-5,6,7,8-tetrahydropyrido[3,4-d]pyrimidin-4-yl)amino)methyl)-1,2,5-thiadiazolidine 1,1-dioxide], for which the IC50 in the assay on PSN1 cells was over 10000 nM; at KRas G12D it was 18 nM; at KRas G12R, 7 nM; with MKN1 cells (setting [1]), 217 nM; with H727 cells (Cisbio pERK HTRF) it was 1670 nM; on KRas G12V, 4 nM. The IC50 in the assay with ASPC1 cells (Cisbio pERK HTRF) was over 10000 nM.
Consider `CCc1c(F)ccc2cc(O)cc(N3CCc4c(nc(OC[C@@]56CCCN5C[C@H](F)C6)nc4NCC4CC(=O)NC4=O)C3)c12` (stereo partly drawn) [Example 414, 3-(((7-(8-ethyl-7-fluoro-3-hydroxynaphthalen-1-yl)-2-(((2R,7aS)-2-fluorotetrahydro-1H-pyrrolizin-7a(5H)-yl)methoxy)-5,6,7,8-tetrahydropyrido[3,4-d]pyrimidin-4-yl)amino)methyl)pyrrolidine-2,5-dione], for which the IC50 in the assay on PSN1 cells stood at 7540 nM; on KRas G12D, 8 nM; on KRas G12R, 11 nM; in the assay on MKN1 cells (setting [1]), 28.4 nM; in the assay with H727 cells (Cisbio pERK HTRF), 935 nM; at KRas G12V, 3 nM. The compound further came in with an IC50 with ASPC1 cells (Cisbio pERK HTRF) of 3000 nM.
As for `CCc1c(F)ccc2cc(O)cc(N3CCc4c(nc(OCC5(CN(C)C)CC5)nc4N4C[C@@H]5C[C@H](C4)[C@H](O)C5)C3)c12` [Example 431, (1R,5R,6R)-3-(2-((1-((dimethylamino)methyl)cyclopropyl)methoxy)-7-(8-ethyl-7-fluoro-3-hydroxynaphthalen-1-yl)-5,6,7,8-tetrahydropyrido[3,4-d]pyrimidin-4-yl)-3-azabicyclo[3.2.1]octan-6-ol], the 50% inhibitory concentration (IC50) in the assay on PSN1 cells is over 10000 nM; on KRas G12D, 6 nM; on KRas G12R it was under 2 nM; in the assay on MKN1 cells (setting [1]) it was 158 nM; in the assay on H727 cells (Cisbio pERK HTRF) it was 1100 nM; on KRas G12V it was 2 nM. Further, in the assay on ASPC1 cells (Cisbio pERK HTRF), the IC50 was 1410 nM.
`CC1(O)COCCN(c2nc(OCC34CCCN3CCC4)nc3c2CCN(c2cc(O)cc(Cl)c2C2CC2)C3)C1` (stereo not drawn) [Example 436, 4-(7-(3-chloro-2-cyclopropyl-5-hydroxyphenyl)-2-((tetrahydro-1H-pyrrolizin-7a(5H)-yl)methoxy)-5,6,7,8-tetrahydropyrido[3,4-d]pyrimidin-4-yl)-6-methyl-1,4-oxazepan-6-ol]: the IC50 at KRas G13D was 10 nM; at KRas G12D, 7 nM; at KRas WT, 10 nM; on KRas G12C it was 8 nM; on KRas G12A it was 11 nM; on KRas G12R, 17 nM. Also, the IC50 on KRas Q61H was 10 nM; in the assay on H727 cells (Cisbio pERK HTRF), 2950 nM; at KRas G12V it was 8 nM; in the assay with ASPC1 cells (Cisbio pERK HTRF), 1760 nM; on KRas G12S it was 10 nM. The inhibition at 0.1 µM in the assay with HCT116 cells was 5%; with A549 cells, 3%; in the assay with H727 cells, 12%; in the assay on ASPC1 cells, -12%; in the assay with H460 cells it was -4%; with H358 cells, 10%.
Turning to `Cc1cc2[nH]ncc2c(N2CCc3c(nc(OCC4(CN(C)C)CC4)nc3N3CCC[C@]4(C3)NC(=O)NC4=O)C2)c1C` [Example 462, (R)-7-(7-(5,6-dimethyl-1H-indazol-4-yl)-2-((1-((dimethylamino)methyl)cyclopropyl)methoxy)-5,6,7,8-tetrahydropyrido[3,4-d]pyrimidin-4-yl)-1,3,7-triazaspiro[4.5]decane-2,4-dione], the half-maximal inhibitory concentration (IC50) at KRas G13D was 9 nM; on KRas G12D, 16 nM; at KRas WT, 9 nM; on KRas G12C, 6 nM; at KRas G12A it was 10 nM; at KRas G12R it was 7 nM. Besides, the IC50 is 10 nM at KRas Q61H; over 10000 nM with H727 cells (Cisbio pERK HTRF); 7 nM at KRas G12V; over 10000 nM with ASPC1 cells (Cisbio pERK HTRF); 9 nM on KRas G12S. The inhibition at 0.1 µM with HCT116 cells was 3%; in the assay on A549 cells, 8%; with H727 cells it was -8%; in the assay on ASPC1 cells, -6%; with H460 cells, 9%; with H358 cells, 1%.
As for `C=C1CN2CCCC2(COc2nc3c(c(N4CCCC5(CC(O)C5)C4)n2)CCN(c2cc(O)cc4ccc(F)c(CC)c24)C3)C1` (stereo not drawn) [Example 660, 6-(7-(8-ethyl-7-fluoro-3-hydroxynaphthalen-1-yl)-2-((2-methylenetetrahydro-1H-pyrrolizin-7a(5H)-yl)methoxy)-5,6,7,8-tetrahydropyrido[3,4-d]pyrimidin-4-yl)-6-azaspiro[3.5]nonan-2-ol], the IC50 on KRas G12D is 3 nM; at KRas WT it was under 2 nM; at KRas G12C it was under 2 nM; with A549 cells it was 131 nM; with MKN1 cells (setting [2]), 28.2 nM; with H727 cells it was 204 nM. Besides, the IC50 was under 2 nM on KRas G12V, 261 nM in the assay on ASPC1 cells, 25 nM in the assay with H358 cells and under 2 nM at KRas G12S.
With `C=C1CN2CCCC2(COc2nc3c(c(N4CC5CC(O)CC4C5)n2)CCN(c2cc(O)cc4ccc(F)c(CC)c24)C3)C1` (stereo not drawn) [Example 661, 6-(7-(8-ethyl-7-fluoro-3-hydroxynaphthalen-1-yl)-2-((2-methylenetetrahydro-1H-pyrrolizin-7a(5H)-yl)methoxy)-5,6,7,8-tetrahydropyrido[3,4-d]pyrimidin-4-yl)-6-azabicyclo[3.2.1]octan-3-ol], the IC50 at KRas G12D came out at 143 nM; at KRas WT it was 25 nM; on KRas G12C, 32 nM; in the assay with A549 cells it was 3800 nM; in the assay with MKN1 cells (setting [2]), 1380 nM; in the assay with H727 cells, 4780 nM. Also, the IC50 at KRas G12V was 33 nM; in the assay on ASPC1 cells, over 10000 nM; in the assay on H358 cells it was 864 nM; on KRas G12S, 21 nM.
